According to patent US8946436B2, “Oxazolidinone compounds and their uses in preparation of antibiotics” (Sichuan Gooddoctor Pharmaceutical Group Co., Ltd., priority 2011, dated 2015):
≈ marks a conversion by molar mass, not a printed value. Read-outs that look alike come from different tables or passages of the source.

How the values were obtained:
Type in all cases: cell-based
[1] = tested on: L-02; test: Cytotoxicity experiment (MTT), L-02; conditions: L-02 normal cells
Description: (1) Inoculating cells: Experimental cells in the growth of logarithmic phase were collected and suspended. The cell concentration of the suspension was adjusted so that they could be inoculated into the wells of 96-well micro plate at a density between 10^3-10^4 cells per well (200 μl per well). (2) Culturing cells: The cells were cultured at normal conditions for 3 days and then exposed to 50 uM compounds for test. (3) Coloring reaction: At 24 h, 48 h and 72 h after the cells being exposed to the compounds for test, 200 μl culture medium containing 20 μl MTT solution (5 mg/ml) was added into each well, and the well was further incubated at 37° C. for 2 hours to terminate the incubation. After the incubation, the supernatants were removed from the wells. In the event there were suspended cells in the wells, centrifugation should be performed before removal of supernatant from the wells. After the removal, 150 μl DMSO was added to each well and mixed thoroughly by agitation for 10 mins to fully dissolve crystals. (4) Ascertainment of colorimetry: The absorbance value at 490 nm of each well was determined by Enzyme-linked immunosorbent Monitor. The growth curve of the experimental cells was plotted by taking time as x-coordinate and absorbance value as y-coordinate. In addition, an inhibition ratio could be calculated in accordance with the following formula: Inhibition ratio=(absorbance value of control group-absorbance value of administering group)/absorbance value of control group×100%.

[2] = tested on: S. agalactiae; test: In vitro antibacterial activity (MIC), S. agalactiae; conditions: S. agalactiae (5 strains)
Description: The test strain was inoculated into the liquid medium and cultured at 37° C. for 16-18 h. The culture liquid and MH medium were put into two blank wells of a 96-well plate, respectively. Then, the absorptions thereof were measured by a Microplate reader. The difference between the absorption values of the culture liquid and MH medium is the adsorption of the bacteria. The concentration of the culture liquid can be calculated according to the formula of 1OD=50 million CFU/mL. The culture liquid was diluted with the MH bouillon culture medium to 5000 CFU/mL for further use.
Compounds 12a, 13 and 14 were dissolved in DMSO to 1 mg/mL, and then filtered with a 0.22 μm filter to obtain the compound solutions. And then they were gradually diluted to a desired concentration (10× final concentration) with the liquid medium, so as to obtain a series of dilutions. The final concentration grade of the dilutions of each tested compound consists of 14 concentrations, which includes: 0.03125 μg/mL, […], 0.125 μg/mL, 0.25 μg/mL, […], 1 μg/mL, 2 μg/mL, 4 μg/mL, 8 μg/mL, 16 μg/mL, 32 μg/mL, 64 μg/mL, 128 μg/mL and 256 μg/mL.
10 μL of each of the compound dilutions above was added into a well of a 96-well plate. 90 μL of the culture liquid (5000 CFU/mL) was added into each of the wells, respectively, mixed with the dilutions to render the tested compound concentration to the final concentration. The resulted mixture was incubated at 37° C. for 16-18 h, and then the OD630 thereof was measured. A culture liquid free of the tested compounds is used as a blank control, and three parallel tests with the same concentration of each compound were performed. The minimum inhibitory concentration (MIC) of each compound on the standard strain of Staphylococcus Aureus and other test strains was determined. Specifically, among the culture liquid contained in the wells of the micro-plate, the first three lowest concentrations under which growth of the test strains could be observed were chose for further evaluation of the MIC. A culture liquid free of tested compounds was used as a blank control. Each of the culture liquids was homogenized independently, and then was diluted with a sterile saline. Each of the diluted culture liquids was plated onto a MH bouillon plate and incubated at 37° C. for 20 h in incubator. After the incubation, the number of the colonies on each plate was counted. As compared with the blank control group, the lowest concentration of each of the test compound groups, at which 80% reduction in the colony number of the strains was achieved, was recorded as the MIC.

[3] = tested on: Streptococcus pyogenes; test: MIC against clinically isolated strains, Streptococcus pyogenes; set-up: MICmode / MICrange: unit not given here; conditions: Streptococcus pyogenes (15 strains)
Text: Standard strains, including Staphylococcus aureus ATCC29213, S. pneumoniae ATCC49619, E. faecalis ATCC29212, are all available from the American Type Culture Collection.
Clinically isolated strains: There are total 120 clinical strains of gram-positive bacterium including: 37 strains of Staphylococcus aureus (consisting of 14 strains of methicillin sensitive Staphylococcus aureus MSSA and 23 strains of methicillin resistant Staphylococcus aureus MRSA); 27 strains of Streptococcus pneumoniae (consisting of 13 strains of penicillin sensitive Streptococcus pneumoniae PSSP and 14 strains of penicillin insensitive or resistant Streptococcus pneumoniae PISP+PRSP); 15 strains of Streptococcus pyogenes; 17 strains of Streptococcus agalactiae; 24 stains of Enterococcus faecium (consisting of 12 strains of vancomycin sensitive Enterococcus faecium and 12 strains of vancomycin resistant Enterococcus faecium).
(2) Tested compounds: Compound 13f was prepared by the methods above, with potency of over 98%; Linezolid was purchased from Pfizer, with potency of 100%.
Staphylococcus and Enterococcus faecium were incubated in Mueller-Hinton agar medium (MHA medium) at 35° C. for 16-20 h; S. pneumoniae was incubated in Cation-Adjusted Mueller-Hinton Broth medium (CAMHB medium) supplemented with 2.5-5.5% (v/v) lysed horse blood (LHB) at 35° C. for 20-24 h; and Streptococcus were incubated in sheep blood-containing medium (prepared by addition of 5% defibrinated sheep blood into MHA media) at 35° C. for 20-24 h in 5% CO2 environment (CO2 incubator). Before test of the compound activity, each stock of the bacteria strains was activated and colonized in the following manner: the stock was transferred and cultured in a liquid culture medium, the culture liquid was smeared onto an agar plate with an inoculating loop to obtain bacterial colonies on the plate after incubation, and then a colony of the bacteria was chose to be suspended into the liquid culture medium for performing the test of compound activity. As a result, fresh bacteria cells were applied to the test. The standard strains were used as sensitive bacterium to control the quality of the experiments, and a plate or tube containing no antibacterial compounds is used as a blank control for the growth of test strains.
The minimal inhibitory concentration (MIC) of the test compounds on the strains of Streptococcus pneumoniae was determined by a standard broth macrodilution method, while the MIC of the test compounds on the other bacteria stains was determined by standard agar double dilution methods. […] The MIC of the test compound to each strain of the bacteria was determined.

SMILES | Inhibition ratio ([1]; 50 uM, 48 h) [%] | MIC [2] [ng/mL] | cytotoxicity at 50 µM ([1]; Homo sapiens, L02, 48 h, read-out: Inhibition ratio) [%] | MIC50 [3] [ng/mL] | MIC90 [3] [ng/mL] | MICmode [3] | MICrange [3] | MIC ([2]; Streptococcus agalactiae, read-out: MIC) [ng/mL]
CC(=O)NC[C@H]1CN(c2ccc(N3CCOCC3)c(F)c2)C(=O)O1 [Linezolid, reference compound] | >50 | 4000 to 32000 |  |  |  |  |  | 
CC(=O)NC[C@H]1CN(c2ccc(-n3cc(-c4ccccn4)cn3)c(F)c2)C(=O)O1 [Compound 13f, (S)-N-((3-(3-fluoro-4-(4-(pyridin-2-yl)-1H-pyrazol-1-yl)phenyl)-2-oxooxazolidin-5-yl)methyl)acetamide] |  |  | 2.74 | 0.25 (≈ 0.632 nM) | 0.5 (≈ 1.26 nM) | 0.25 | 0.25-0.5 | 250 to 2000 (≈ 632 to 5060 nM)
